Laboratory results published in patent US8916712B2, “Compositions and methods for cytoprotection” (Board of Trustees of the University of Arkansas, priority 2007, dated 2014).

Experiments:
[1] = biological target: T1, rat serum DNase (predominantly rat DNase I) (Rattus norvegicus, UniProt P21704); assay: Plasmid incision assay of endonuclease activity, rat serum DNase; type: biochemical; conditions: 0, 100 or 200 μM; 1 hour at 37° C.; pBR322 plasmid DNA
T1 construct: rat serum DNase (which is predominantly rat DNase I); from tissue; host or cells: rat serum
T1 sequence (P21704 23-284): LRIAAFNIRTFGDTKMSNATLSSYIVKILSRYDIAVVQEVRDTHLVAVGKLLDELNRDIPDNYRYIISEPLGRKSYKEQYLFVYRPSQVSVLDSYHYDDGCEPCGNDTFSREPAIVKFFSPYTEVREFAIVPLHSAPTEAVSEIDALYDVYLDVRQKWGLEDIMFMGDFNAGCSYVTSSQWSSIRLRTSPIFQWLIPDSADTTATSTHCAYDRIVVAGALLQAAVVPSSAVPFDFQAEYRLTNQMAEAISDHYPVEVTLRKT
Method: (§1) Endonuclease activity was measured using a plasmid incision assay. Activity was measured in 20 μl samples containing 1 μg pBR322 plasmid DNA, 10 mM Tris-HCl, pH 7.7, 25 μg/ml bovine serum albumin V fraction, 0.5 mM dithiothreitol, 5 mM MgCl2, 2 mM CaCl2, and 2 μl endonuclease. After 1 hour incubation at 37° C., the reaction was stopped by the addition 5 μl 1% SDS, 100 mM EDTA. Digested DNA was then subjected to a 1% agarose gel electrophoresis at 7 V/cm for 1 hour at room temperature. The gel was stained in 0.5 μg/ml ethidium bromide solution for 20 minutes and photographed under […]. Scanning densitometer Fotodyne (Fotodyne Inc., Hartland, Wis.) was utilized to quantify the relative amount of endonuclease-treated plasmid DNA present in a covalently closed circular DNA (cccDNA), open circular DNA (ocDNA) or linear DNA (linDNA). One endonuclease unit was defined as the amount of enzyme required to convert 1 μg cccDNA to ocDNA and linDNA.
(§2) Recombinant DNase I and rat serum DNase (which is predominantly rat DNase I) were incubated with 0, 100, or 200 μM of a Zn^2+-chelate (i.e., Zn-3,5-diisopropylsalicylic acid (DIPS), Zn-gluconate, or Zn-glycinate), a ligand (i.e., DIPS, gluconic acid, or glycine, as negative controls), or ZnCl2 (as positive control).

FRTL-5 thyroid cells = assay: Radiation-induced thyroid cell death (450 Gy), LDH release assay or Comet assay; type: cell-based; conditions: added after radiation, 24 hr
Method: FRTL-5 thyroid cells (ATCC, catalog #CRL8305) were irradiated with 450 Gy without or with Zn^2+-chelates added before and/or after irradiation. […] In another experiment, Zn^2+-chelates (i.e., Zn-captopril, Zn-NAC, Zn-penicillamine, or Zn-PTCA) were added to human U937 cells either 30 minutes before, immediately after, or up to 4 hours after irradiation (4 Gy).

white pulp splenocytes = assay: Total body irradiation of mice (8 Gy), TUNEL-positive white pulp splenocytes; type: in vivo, mouse
Description: Mice were exposed to total body irradiation and the radioprotective effects of Zn^+-chelates administered before or after the irradiation were examined. Each unanesthetized mouse was placed temporarily in a well ventilated plexiglass restrainer and exposed to total body irradiation from a cesium irradiator. A dose of 8 Gy was chosen on the basis of previous studies utilizing male CD-1 mice (Bichay et al., 1986, supra). A total of 6-10 animals per group were used. The animals were allowed to survive for 36 hr after irradiation.
To test for radioprotective effects, Zn-DIPS was injected subcutaneously twice a day 15 mg/kg each time (i.e., 30 mg/kg/day). One group of animals (“before”) received Zn-DIPS starting 2 days before irradiation and continued until 36 hr after irradiation. Another group (“after”) was injected with Zn-DIPS about 30 min […] irradiation and continued until euthanasia. “Vehicle” control animals were injected with vehicle (i.e., saline) for the duration of the experiment, and irradiated with the same dose.
FIG. 12 presents the number of TUNEL-positive cells in white pulp splenocytes from the different groups.

[2] = biological target: T2, recombinant human DNase I (Homo sapiens, UniProt P24855); assay: Plasmid incision assay of endonuclease activity, recombinant DNase I; type: biochemical
T2 construct: Recombinant DNase I was produced using a similar approach; made in house
T2 sequence (P24855 23-282): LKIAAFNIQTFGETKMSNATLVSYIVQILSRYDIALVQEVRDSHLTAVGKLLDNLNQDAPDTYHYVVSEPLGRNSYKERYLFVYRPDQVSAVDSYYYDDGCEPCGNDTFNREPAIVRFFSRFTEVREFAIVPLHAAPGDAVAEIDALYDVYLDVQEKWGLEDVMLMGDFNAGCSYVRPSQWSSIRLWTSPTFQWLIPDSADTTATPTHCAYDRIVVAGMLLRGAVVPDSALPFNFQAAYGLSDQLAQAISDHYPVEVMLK
Method: It was hypothesized that Zn^2+-chelates of aminothiols could provide radioprotection via their direct inhibition of nucleases and their antioxidant properties (i.e., prevent nuclease induction and release). To test this hypothesis, the activity of Zn(II) chelates to inhibit nucleases was assayed in vitro. For this, DNase I and EndoG were cloned, recombinant nuclease were expressed and purified for the in vitro assay. Human and mouse mature EndoG cDNA was reverse transcribed by RT-PCR from either normal human breast epithelial HMEC cells (Clonetics, Walkersville, Md.) or immortalized mouse proximal tubule epithelial TKPTS cells (obtained from D. Elsa Bello-Reuss, University of Texas Medical Branch, Galveston). The plasmid for mature human EndoG (A49-K297) with a C-terminal histidine tag and mouse mature EndoG (A45-K294) with a C-terminal histidine tag were constructed by inserting coding cDNA into pET29b(+) (Novagen, San Diego, Calif.) and expressed in Escherichia coli BL21 (DE3) cells using standard procedures. Expression of the recombinant proteins was induced by IPTG. The expressed recombinant protein was purified by HisTrap FF crude Kit (GE Healthcare, Uppsala, Sweden) and stored in 20 mM Tris-HCl, ph 7.5, 0.5 M NaCl, 2 mM 2-mercaptoethanol, and 50% glycerol.
as §1, §2

Zn-3,5-diisopropylsalicylic acid [Zn-DIPS]
Inhibition of serum DNase activity [1]: inhibited | Protection from radiation-induced thyroid cell death (FRTL-5 thyroid cells): provided protection | Radioprotection (TUNEL-positive white pulp splenocytes), administered before irradiation (white pulp splenocytes; 15 mg/kg s.c. twice a day from 2 days before until 36 hr after irradiation): partial radioprotection | Radioprotection (TUNEL-positive white pulp splenocytes), administered after irradiation (white pulp splenocytes; 15 mg/kg s.c. twice a day, "after" group): partial radioprotection | Protection of spleen compared with inactivation of DNase I (white pulp splenocytes; versus DNase I knock-out mice): better protection | Inhibition of DNase I activity ([2]; 0, 100 or 200 μM, 1 hour at 37° C., pBR322 plasmid DNA): inhibited | Ranking of nuclease inhibition among the Zn^2+-chelates tested ([2]; DNase I and serum DNase, FIG. 5): best inhibition
